Measurements taken from patent US20210253582A1, “SALTS AND SOLID FORMS AND PROCESSES OF PREPARING A PI3K INHIBITOR” (Incyte Corporation, priority 2020, published 2021).

Target: T1, PI3K (Homo sapiens, UniProt O00329)
T1 construct: purchased Millipore (Bedford, Mass.)
Test: PI3K enzyme assays (at least one assay described herein)
Type: biochemical
Details: according to at least one assay described herein; assay not specified
Excerpt: PI3-Kinase luminescent assay kit including lipid kinase substrate, D-myo-phosphatidylinositol 4,5-bisphosphate (PtdIns(4,5)P2)D (+)-sn-1,2-di-O-octanoylglyceryl, 3-O-phospho linked (PIP2), biotinylated I(1,3,4,5)P4, PI(3,4,5)P3 Detector Protein is purchased from Echelon Biosciences (Salt Lake City, Utah). AlphaScreen™ GST Detection Kit including donor and acceptor beads was purchased from PerkinElmer Life Sciences (Waltham, Mass.). PI3Kδ (p110δ/p85α) is purchased from Millipore (Bedford, Mass.). ATP, MgCl2, DTT, EDTA, HEPES and CHAPS are purchased from Sigma-Aldrich (St. Louis, Mo.).
The kinase reaction are conducted in 384-well REMP plate from Thermo Fisher Scientific in a final volume of 40 μL. Inhibitors are first diluted serially in DMSO and added to the plate wells before the addition of other reaction components. The final concentration of DMSO in the assay is 2%. The PI3K assays are carried out at room temperature in 50 mM HEPES, pH 7.4, 5 mM MgCl2, 50 mM NaCl, 5 mM DTT and CHAPS 0.04%. […] The activity of the product is determined on Fusion-alpha microplate reader (Perkin-Elmer). […]
The kinase reactions are conducted in clear-bottom 96-well plate from Thermo Fisher Scientific in a final volume of 24 μL. […] After the plate sealing, the radioactivity of the product is determined by scintillation counting on Topcount (Perkin-Elmer). […]

T1 sequence (O00329 whole entry): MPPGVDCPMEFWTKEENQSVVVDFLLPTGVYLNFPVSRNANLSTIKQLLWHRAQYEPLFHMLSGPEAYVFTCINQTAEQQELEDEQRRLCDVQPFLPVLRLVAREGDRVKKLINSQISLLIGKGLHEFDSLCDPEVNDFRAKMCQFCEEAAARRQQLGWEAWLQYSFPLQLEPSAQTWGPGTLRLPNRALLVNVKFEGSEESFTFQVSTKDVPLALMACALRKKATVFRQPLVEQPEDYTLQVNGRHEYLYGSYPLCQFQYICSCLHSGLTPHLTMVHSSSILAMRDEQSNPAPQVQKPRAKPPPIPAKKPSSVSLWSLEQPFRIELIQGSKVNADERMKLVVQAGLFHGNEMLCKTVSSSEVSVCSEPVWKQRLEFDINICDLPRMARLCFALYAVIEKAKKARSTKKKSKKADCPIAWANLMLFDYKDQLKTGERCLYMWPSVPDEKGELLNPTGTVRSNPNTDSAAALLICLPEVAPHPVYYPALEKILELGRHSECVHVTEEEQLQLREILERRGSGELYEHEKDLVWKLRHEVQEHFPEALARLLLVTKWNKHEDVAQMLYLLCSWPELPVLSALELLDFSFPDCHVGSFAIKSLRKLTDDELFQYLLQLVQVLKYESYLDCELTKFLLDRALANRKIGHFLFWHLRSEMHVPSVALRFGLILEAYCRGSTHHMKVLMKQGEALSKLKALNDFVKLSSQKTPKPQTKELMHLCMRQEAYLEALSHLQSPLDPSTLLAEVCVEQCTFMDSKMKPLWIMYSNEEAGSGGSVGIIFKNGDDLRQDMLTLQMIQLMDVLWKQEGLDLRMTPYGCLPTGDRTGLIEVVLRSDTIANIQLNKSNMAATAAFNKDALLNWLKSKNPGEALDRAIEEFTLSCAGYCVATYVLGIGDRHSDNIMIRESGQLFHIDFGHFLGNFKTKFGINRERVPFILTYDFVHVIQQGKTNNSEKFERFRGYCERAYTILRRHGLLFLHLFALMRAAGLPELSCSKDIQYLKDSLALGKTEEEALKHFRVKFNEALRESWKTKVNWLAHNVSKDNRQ
T1 sequence (P27986 whole entry partner): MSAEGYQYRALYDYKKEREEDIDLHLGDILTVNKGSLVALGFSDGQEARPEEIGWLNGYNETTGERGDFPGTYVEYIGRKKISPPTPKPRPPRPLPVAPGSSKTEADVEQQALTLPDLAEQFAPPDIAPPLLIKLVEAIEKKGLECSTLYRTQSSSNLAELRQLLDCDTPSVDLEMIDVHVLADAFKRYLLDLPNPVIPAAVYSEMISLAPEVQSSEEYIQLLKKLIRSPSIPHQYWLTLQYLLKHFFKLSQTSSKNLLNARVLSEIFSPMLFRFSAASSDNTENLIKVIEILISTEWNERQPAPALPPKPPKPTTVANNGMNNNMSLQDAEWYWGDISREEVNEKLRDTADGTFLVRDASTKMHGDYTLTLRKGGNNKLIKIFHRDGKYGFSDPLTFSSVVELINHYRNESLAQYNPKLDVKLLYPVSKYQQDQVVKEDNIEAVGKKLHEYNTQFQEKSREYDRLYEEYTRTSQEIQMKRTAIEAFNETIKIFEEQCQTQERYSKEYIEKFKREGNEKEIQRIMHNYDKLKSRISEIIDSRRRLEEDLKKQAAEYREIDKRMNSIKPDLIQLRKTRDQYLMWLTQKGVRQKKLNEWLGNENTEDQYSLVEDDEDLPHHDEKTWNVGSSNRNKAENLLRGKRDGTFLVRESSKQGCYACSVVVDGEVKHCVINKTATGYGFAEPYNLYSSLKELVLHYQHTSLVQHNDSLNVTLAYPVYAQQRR

PI3K inhibition (qualitative statement): found to be PI3K inhibitors
SMILES: CCOc1c([C@H](C)n2nc(C)c3c(N)ncnc32)cc(Cl)c(F)c1[C@@H]1CNC(=O)O1 [compound of Formula I, (R)-5-(3-((S)-1-(4-amino-3-methyl-1H-pyrazolo[3,4-d]pyrimidin-1-yl)ethyl)-5-chloro-2-ethoxy-6-fluorophenyl)oxazolidin-2-one]
